The record followed here is patent US20240124396A1, “AMINO LIPID COMPOUND, PREPARATION METHOD THEREFOR, AND USE THEREOF” (SHENZHEN SHENXIN BIOTECHNOLOGY CO., LTD., priority 2021, published 2024).

The test system of the first experiment is Luciferase mRNA (Fluc mRNA). The experiment can be described thus: Luciferase mRNA in vivo delivery performance of lipid nanoparticles prepared from amino lipid compounds. The arrangement: species or system BALB/c mice. As to conditions: batch 1; LNP with Fluc mRNA, 0.5 mg/kg intramuscular injection, mice, total fluorescence intensity imaged 6 hours after dosing. As to the method:
Evaluation of Luciferase mRNA In Vivo Delivery Performance of Lipid Nanoparticles Prepared from Amino Lipid Compounds • Preparation process: The delivery vector in the present invention, DSPC, cholesterol, and PEG2000-DMG were mixed and dissolved in absolute ethanol in a molar ratio of 50:10:38.5:1.5. Luciferase mRNA (Fluc mRNA) was dissolved in a sodium acetate solution (50 mM, pH=4.0). Two microinjection pumps were used, and the ratio of ethanol solution to sodium acetate solution (50 mM, pH=4.0) was controlled to be 1:3. A crude solution of lipid nanoparticles was prepared in a microflow channel chip, then dialyzed for 6 hours with 1×PBS (phosphate buffer solution) at a controlled temperature of 4° C. by using a dialysis cassette (Fisher, MWCO 20,000), and filtered with a 0.22 μm microporous filter membrane before use. The mass ratio of the amino lipid compound to luciferase mRNA (Fluc mRNA) was about 10:1. • Animal preparation: 6-week-old male BALB/c mice with body weights of about 20 g were selected, and fed in an SPF-grade feeding room. Animal experiments were strictly carried out according to the guidelines of the national health institution and the requirements of animal ethics. • In vivo delivery: 3 mice were randomly selected per group and injected with lipid nanoparticles at a dose of 0.5 mg/kg by intramuscular injection. After 6 hours, 200 μL of 10 mg/mL potassium […] was injected into each mouse via the tail vein, and after 10 minutes, the mice were placed under an in vivo imaging system (IVIS-200, Xenogen), and the total fluorescence intensity of each mouse was observed and recorded by photographing.
Table 1 provides the expression intensities of Fluc mRNA delivered by the intramuscular injection administration of the representative amino lipid compounds with DLin-MC3 as the control (two batches of tests in total).
`CCCCC/C=C\C/C=C\CCCCCCC[C@@H]1[C@@H](C(=O)OCCN2CCCC2)CC(=O)N1CCCCCCCCCCCCCCCC` (racemic) [Compound 20]: the Fluorescence intensity stood at 5.2E+06. On the same count and under the same terms, for `CCCCCCCC/C=C\CCCCCCC[C@@H]1[C@@H](C(=O)OCCN2CCCC2)CC(=O)N1CCCCCCCCCCCCCCCC` (racemic) [Compound 15] the value was 2.8E+07; for `CCCCC/C=C\C/C=C\CCCCCCCCC(CCCCCCCC/C=C\C/C=C\CCCCC)OC(=O)CCCN(C)C` [Dlin-MC3, reference compound], 7.7E+06; for `CCCCCCCCCCCCCCCCC[C@@H]1[C@@H](C(=O)NCCN2CCN(C)CC2)CC(=O)N1CCCCCC` (racemic) [Compound 10], 8.1E+05.

The compound `CCCCCCCCCCCCCCCCN1C(=O)C[C@H](C(=O)NCCN2CCCCC2)[C@H]1CCCCCCCC` (racemic) [Compound 9] showed a Fluorescence intensity of 6.1E+06. Still for that read-out and setting: for `CCCCCCCCCCCCN1C(=O)C[C@H](C(=O)NCCN(C)C)[C@H]1CCCCCCCCCCC` (racemic) [Compound N12A12C4D1] the value was 2.9E+07; for `CCCCCCCC/C=C\CCCCCCCCN1C(=O)C[C@H](C(=O)NCCCN(C)C)[C@H]1CCCCCCCCCCC` (racemic) [Compound 11], 2.1E+06. Same read-out and setting: for `CCCCCCCCCCCCCCCCN1C(=O)CC[C@H](C(=O)OCCN2CCCCC2)[C@H]1CCCCCCCCC` (racemic) [Compound N16A10C5O10] the value was 4.5E+06; for `CCCCCCCCCCCCCCCCC[C@@H]1[C@@H](C(=O)OCC2CCN(C)CC2)CCC(=O)N1CCCCCCCCCCCC` (racemic) [Compound 7], 6.1E+05.

As to `CCCCC/C=C\C/C=C\CCCCCCC[C@@H]1[C@@H](C(=O)OCCCN(C)C)CC(=O)N1CCCCCCCCCCCCC` (racemic) [Compound 19], the Fluorescence intensity was 2.1E+06. Same read-out and setting: for `CCCCCCCCCCCCCCCCN1C(=O)CC[C@H](C(=O)OCCN2CCOCC2)[C@H]1CCCCCCCCCCC` (racemic) [Compound 3] the value was 5.1E+06; for `CCCCCCCCCCCCCCCCN1C(=O)CC[C@H](C(=O)OCCCN2CCN(C)CC2)[C@H]1CCCCCCCCC` (racemic) [Compound 4], 2.8E+06; for `CCCCC/C=C\C/C=C\CCCCCCC[C@@H]1[C@@H](C(=O)OCCN2CCCCC2)CC(=O)N1CCCCCCCCCCCC` (racemic) [Compound N12A20C4O10], 2.7E+06. Still for that read-out and setting: for `CCCCCCCCCCCCCCC[C@@H]1[C@@H](C(=O)OCCN2CCCCC2)CCC(=O)N1CCCCCCCCCCCCC` (racemic) [Compound 6] the value was 3.1E+05; for `CCCCCCCC/C=C\CCCCCCC[C@@H]1[C@@H](C(=O)OCCN2CCCCC2)CC(=O)N1CCCCCCCCCCCC` (racemic) [Compound 16], 1.4E+07. On the same count and under the same terms, for `CCCCCCCCCCCCN1C(=O)C[C@H](C(=O)OCCCN(C)C)[C@H]1CCCCCCCCCCC` (racemic) [Compound N12A12C4O2] the value was 2.8E+06.

The experiment is the same for the next values; noted with them: batch 2; LNP with Fluc mRNA, 0.5 mg/kg intramuscular injection, mice, total fluorescence intensity imaged 6 hours after dosing.
With `CCCCCCCC/C=C\CCCCCCC[C@@H]1[C@@H](C(=O)OCCN2CCCCC2)CC(=O)N1CCCCCCCCCCCC` (racemic) [Lipid 8], the Fluorescence intensity was found to be 2.3E+07. Same read-out and setting: for `CCCCCCCC/C=C\CCCCCCCCN1C(=O)C[C@H](C(=O)OCCN2CCCCC2)[C@H]1CCCCCCCCC` (racemic) [Lipid 1] the value was 8.8E+06. Compound `CCCCC/C=C\C/C=C\CCCCCCCCC(CCCCCCCC/C=C\C/C=C\CCCCC)OC(=O)CCCN(C)C` [Dlin-MC3, reference compound] showed a Fluorescence intensity of 6.9E+06. The same measure, in the same setting: for `CCCCC/C=C\C/C=C\CCCCCCCCN1C(=O)C[C@H](C(=O)OCCCN2CCN(C)CC2)[C@H]1CCCCCCCCCCCC` (racemic) [Lipid 6] the value was 3.7E+06; for `CCCCCCCC/C=C\CCCCCCCCN1C(=O)C[C@H](C(=O)OCCCN(C)C)[C@H]1CCCCCCCCCCCCCC` (racemic) [Lipid 2], 4.9E+06; for `CCCCCCCC/C=C\CCCCCCCCN1C(=O)C[C@H](C(=O)OCCN2CCCC2)[C@H]1CCCCCCCCCCCCCCCCC` (racemic) [Lipid 3], 2.9E+07. On the same count and under the same terms, for `CCCCC/C=C\C/C=C\CCCCCCCC[C@@H]1[C@@H](C(=O)OCCN2CCCCC2)CC(=O)N1CCCCCCCCCCCC` (racemic) [Lipid 9] the value was 4.2E+06; for `CCCCC/C=C\C/C=C\CCCCCCCCN1C(=O)C[C@H](C(=O)OCCN2CCCC2)[C@H]1CCCCCCCCCCCCCC` (racemic) [Lipid 5], 7.6E+06; for `CCCCCCCC/C=C\CCCCCCC[C@@H]1[C@@H](C(=O)OCCN2CCCC2)CC(=O)N1CCCCCCCCCCCCCCCC` (racemic) [Lipid 7], 4.8E+07. The same measure, in the same setting: for `CCCCC/C=C\C/C=C\CCCCCCCC[C@@H]1[C@@H](C(=O)OCC2CCN(C)CC2)CC(=O)N1CCCCCCCCCCCCC` (racemic) [Lipid 10] the value was 3.6E+06.

The test system of the next experiment is Ovalbumin mRNA (OVA mRNA). Nature of the experiment: Ovalbumin mRNA in vivo delivery and immunization performance of lipid nanoparticles (ELISA IgG titer). The arrangement: species or system BALB/c mice. The conditions noted are these: LNP with OVA mRNA, 0.5 mg/kg subcutaneous injection Day 0 and Day 7, blood on the 21st day, FIG. 1 and FIG. 2. As to the method: Evaluation of Ovalbumin mRNA In Vivo Delivery and Immunization Performance of Lipid Nanoparticles (Delivery Vector) Prepared from Amino Lipid Compounds • Preparation process: The amino lipid compound described in the present invention, DSPC, cholesterol, and PEG2000-DMG were mixed and dissolved in absolute ethanol in a molar ratio of 50:10:38.5:1.5. Ovalbumin mRNA (OVA mRNA) was dissolved in a sodium acetate solution (50 mM, pH=4.0). Two microinjection pumps were used, and the ratio of ethanol solution to sodium acetate solution (50 mM, pH=4.0) was controlled to be 1:3. A crude solution of lipid nanoparticles was prepared in a microflow channel chip, then dialyzed for 6 hours with 1×PBS at a controlled temperature of 4° C. by using a dialysis cassette (Fisher, MWCO 20,000), and filtered with a 0.22 μm microporous filter membrane before use. The mass ratio of the amino lipid compound to ovalbumin mRNA (OVA mRNA) was about 10:1. • Animal preparation: 6-week-old male BALB/c mice with body weights of about 20 g were selected, and fed in an SPF-grade feeding room. Animal experiments were strictly carried out according to the guidelines of the national health institution and the requirements of animal ethics. • In vivo delivery: 3 mice were randomly selected per group and injected with lipid nanoparticles at a dose of 0.5 mg/kg by subcutaneous injection (Day 0). After 7 days, the same amount was used for another boost (Day 7). Tail vein blood was taken on the 21st day for the serological analysis. DLin-MC3 was used as the control. • Enzyme-linked immunosorbent assay (ELISA): a flat-bottomed 96-well plate (Nunc) was pre-coated with a concentration of OVA protein of 0.5 μg protein per well in 50 mM carbonate buffer (pH 9.6), and was allowed to stay overnight at 4° C., and then blocked with 5% glycine. Anti-serums, proteins obtained from immune animals, were diluted from 10^2 to 10^6 with PBS-0.05% Tween (PBS-T) at pH 7.4, added to the wells and incubated at room temperature, and placed at 37° C. for 1 hour. Horseradish peroxidase (HRP) coupled goat anti-mouse IgG was used for labeling in PBS-T-1% BSA at a dilution rate of 1:10,000. After the addition of the HRP substrate, the optical density was determined at a wavelength, and the absorbance at 450 nm was measured in an ELISA microplate reader (Bio-Rad).
It will be appreciated that modifications and variations are possible to those skilled in the art in light of the above teachings, and it is intended that the present invention cover all such modifications and variations as fall within the scope of the appended claims.
For `CCCCCCCCCCCCN1C(=O)C[C@H](C(=O)NCCN(C)C)[C@H]1CCCCCCCCCCC` (racemic) [Compound N12A12C4D1], the “IgG antibody titers compared with the DLin-MC3 control group” value is given as “significantly superior”. Still for that read-out and setting: for `CCCCCCCCCCCCCCCCN1C(=O)CC[C@H](C(=O)OCCN2CCCCC2)[C@H]1CCCCCCCCC` (racemic) [Compound N16A10C5O10] the value was “significantly superior”; for `CCCCC/C=C\C/C=C\CCCCCCC[C@@H]1[C@@H](C(=O)OCCN2CCCCC2)CC(=O)N1CCCCCCCCCCCC` (racemic) [Compound N12A20C4O10], “significantly superior”; for `CCCCCCCCCCCCN1C(=O)C[C@H](C(=O)OCCCN(C)C)[C@H]1CCCCCCCCCCC` (racemic) [Compound N12A12C4O2], “comparable”.
